{"source": "patent US20160137746A1", "about": "“METHODS FOR TREATING HIGH CARDIOVASCULAR RISK PATIENTS WITH HYPERCHOLESTEROLEMIA” (Sanofi Biotechnology, priority 2014, published 2016)", "test_system": "high cardiovascular risk patients with hypercholesterolemia", "test": "ODYSSEY COMBO II: lipid efficacy of alirocumab vs ezetimibe, add-on to maximally tolerated statin", "assay_type": "in vivo, human", "conditions": "for Calculated LDL-C percent change from baseline, LS mean (SE): ITT population, MMRM, alirocumab 75 Q2W/Up150 Q2W, ezetimibe 10", "description": "Each of the COMBO studies was randomized, double-blinded, and placebo-controlled.\nThe primary efficacy endpoint for each study was the difference between treatment arms in the percent change in LDL-C from baseline to Week 24.\nApo, apolipoprotein; HDL-C, high-density lipoprotein cholesterol; ITT, intent-to-treat; LDL-C, low-density lipoprotein cholesterol; Lp(a), lipoprotein (a); TG, triglycerides.\nCOMBO II was a Phase 3, randomized, double-blind, active-controlled, parallel-group, multinational 104-week study. The study enrolled high-risk patients with uncontrolled hypercholesterolemia on stable, maximally tolerated daily statin therapy. Unlike COMBO I, with a placebo arm, COMBO II incorporated an active-treatment arm (ezetimibe) with double-dummy design (FIG. 1B) and patients were not allowed to receive any other lipid lowering therapies besides statin and their randomized treatment.\nAfter randomization, patients entered a double-blind, double-dummy treatment period of 104 weeks.\nPrimary analyses of efficacy endpoints were conducted using an ITT approach (based on the ITT population defined above), including all lipid data, regardless of whether the patient was continuing therapy or not. This corresponds to ITT estimands, defined for primary and key secondary endpoints. In addition, analyses were also conducted using an on-treatment approach (based on the mITT population defined above), including lipid data collected during the efficacy treatment period. This corresponds to on-treatment estimands of key secondary endpoints.\nWith regards to the primary efficacy analysis (ITT approach), the percent change in calculated LDL-C from baseline to Week 24 was analyzed using a mixed-effect model with repeated measures (MMRM) approach.", "key": {"[1]": {"conditions": "ITT, Week 24, listed as alirocumab"}}, "note": "Several values for one entry are separate records, joined by “and”; a condition that tells them apart may be missing. Identical values can stand only once.", "data": [{"substance": "Alirocumab: human anti-PCSK9 antibody; HCVR SEQ ID NO:1, LCVR SEQ ID NO:6; CDRs SEQ ID NOs 2/3/4/7/8/10", "values": [{"measurement": "Achieved LDL-C, median", "setting": "24 weeks, FIG. 7", "value": 40, "unit": "mg/dL"}, {"measurement": "Patients with automatic up-titration at Week 12 from 75 mg Q2W to 150 mg Q2W (Week 8 LDL-C ≧70 mg/dL)", "setting": "82 of 446 patients with at least one injection after Week 12", "value": "18.4% and 18%"}, {"measurement": "Calculated LDL-C percent change, LS mean difference (SE) vs ezetimibe", "setting": "ITT, Week 24", "value": "−29.8 (2.3) %"}, {"measurement": "Calculated LDL-C, LS mean (SE) percent change from baseline", "setting": "ITT, Week 24", "value": "−50.6 (1.4) %"}, {"measurement": "Fasting TGs, LS mean percent change from baseline", "setting": "ITT, Week 24", "value": "−13.0", "unit": "%"}, {"measurement": "Calculated LDL-C percent change, LS mean difference (SE) vs ezetimibe", "setting": "[1]", "value": "−29.8", "unit": "%"}, {"measurement": "Calculated LDL-C, LS mean (SE) percent change from baseline", "setting": "[1]", "value": "−50.6", "unit": "%"}, {"measurement": "Fasting TGs percent change, LS mean difference vs ezetimibe", "setting": "ITT, Week 24, p=0.9117", "value": "−0.3", "unit": "%"}, {"measurement": "Calculated LDL-C, LS mean percent change from baseline", "setting": "ITT, Week 52, listed as alirocumab", "value": "−49.5% and −50%"}, {"measurement": "Apolipoprotein A-1, LS mean difference vs. ezetimibe", "setting": "ITT, time point not given", "value": "vs. ezetimibe of 6.3%"}, {"measurement": "Apolipoprotein A-1, LS mean vs. baseline", "setting": "ITT, time point not given", "value": "vs. baseline of +5.0"}, {"measurement": "Calculated LDL-C percent change, LS mean difference vs ezetimibe", "setting": "On-treatment, Week 24", "value": "−30.6", "unit": "%"}, {"measurement": "Calculated LDL-C percent change from baseline, LS mean (SE)", "setting": "Week 4", "value": "−54.7 (1.1) %"}, {"measurement": "Calculated LDL-C percent change from baseline, LS mean (SE)", "setting": "Week 8", "value": "−54.3 (1.2) %"}, {"measurement": "Apo-B - Percent change from baseline to Week 12, LS mean difference vs. ezetimibe", "setting": "Week 12, ITT", "value": "vs. ezetimibe of −22.5%"}, {"measurement": "Apo-B - Percent change from baseline to Week 12, LS mean vs. baseline", "setting": "Week 12, ITT", "value": "vs. baseline of −39.7"}, {"measurement": "Calculated LDL-C - Percent change from baseline to Week 12, LS mean difference vs. ezetimibe", "setting": "Week 12, ITT", "value": "vs. ezetimibe of −29.4%"}, {"measurement": "Non-HDL-C - Percent change from baseline to Week 12, LS mean difference vs. ezetimibe", "setting": "Week 12, ITT", "value": "vs. ezetimibe of −22%"}, {"measurement": "Non-HDL-C - Percent change from baseline to Week 12, LS mean vs. baseline", "setting": "Week 12, ITT", "value": "vs. baseline of −42.6"}, {"measurement": "Total-C - Percent change from baseline to Week 12, LS mean difference vs. ezetimibe", "setting": "Week 12, ITT", "value": "vs. ezetimibe of −14.3%"}, {"measurement": "Total-C - Percent change from baseline to Week 12, LS mean vs. baseline", "setting": "Week 12, ITT", "value": "vs. baseline of −29.4"}, {"measurement": "Calculated LDL-C - Percent change from baseline to Week 12, LS mean difference vs. ezetimibe", "setting": "Week 12, On-treatment analysis", "value": "vs. ezetimibe of −29.7%"}, {"measurement": "Calculated LDL-C percent change from baseline, LS mean (SE)", "setting": "Week 16", "value": "−56.4 (1.3) %"}, {"measurement": "Apo B reduction compared with ezetimibe", "setting": "Week 24", "value": 22.4, "unit": "%"}, {"measurement": "Fasting TGs reduced from baseline", "setting": "Week 24", "value": 13.5, "unit": "%"}, {"measurement": "HDL-C increase compared with ezetimibe", "setting": "Week 24", "value": 8.1, "unit": "%"}, {"measurement": "Lp(a) reduction compared with ezetimibe", "setting": "Week 24", "value": 21.7, "unit": "%"}, {"measurement": "Mean achieved LDL-C", "setting": "Week 24", "value": "51.6 (1.4) mg/dL"}, {"measurement": "Non-HDL-C reduction compared with ezetimibe", "setting": "Week 24", "value": 22.9, "unit": "%"}, {"measurement": "Apo-B - Percent change from baseline to Week 24, LS mean vs. baseline", "setting": "Week 24, ITT", "value": "vs. baseline of −40.7"}, {"measurement": "HDL-C - Percent change from baseline to Week 24, LS mean difference vs. ezetimibe", "setting": "Week 24, ITT", "value": "vs. ezetimibe of 8.1%"}, {"measurement": "HDL-C - Percent change from baseline to Week 24, LS mean vs. baseline", "setting": "Week 24, ITT", "value": "vs. baseline of- +8.6"}, {"measurement": "Lp(a) - Percent change from baseline to Week 24, combined estimate for adjusted mean difference vs. ezetimibe", "setting": "Week 24, ITT", "value": "ezetimibe of −21.7%"}, {"measurement": "Lp(a) - Percent change from baseline to Week 24, mean vs. baseline", "setting": "Week 24, ITT", "value": "vs. baseline of −27.8"}, {"measurement": "Non-HDL-C - Percent change from baseline to Week 24, LS mean difference vs. ezetimibe", "setting": "Week 24, ITT", "value": "vs. ezetimibe of−22.9%"}, {"measurement": "Non-HDL-C - Percent change from baseline to Week 24, LS mean vs. baseline", "setting": "Week 24, ITT", "value": "vs. baseline of −42.1"}, {"measurement": "Total-C - Percent change from baseline to Week 24, LS mean difference vs. ezetimibe", "setting": "Week 24, ITT", "value": "vs. ezetimibe of −14.7%"}, {"measurement": "Calculated LDL-C percent change from baseline, LS mean (SE)", "setting": "Week 24", "value": "−50.6 (1.4) %"}, {"measurement": "Fasting TGs - Percent change from baseline to Week 24, combined estimate for adjusted mean difference vs. ezetimibe", "setting": "Week 24, ITT, not statistically significant (p 0.9117)", "value": "ezetimibe of −0.3%"}, {"measurement": "HDL-C percent change from baseline to week 24", "setting": "Week 24, on-treatment analysis", "value": "9.0 (0.8)"}, {"measurement": "HDL-C percent change from baseline to week 24, LS mean difference (SE) alirocumab vs ezetimibe", "setting": "Week 24, on-treatment analysis", "value": "8.2 (1.4) %"}, {"measurement": "Lipoprotein(a) percent change from baseline to week 24", "setting": "Week 24, on-treatment analysis", "value": "−28.1 (1.4)"}, {"measurement": "Lipoprotein(a) percent change from baseline to week 24, LS mean difference (SE) alirocumab vs ezetimibe", "setting": "Week 24, on-treatment analysis", "value": "−22.5 (2.4) %"}, {"measurement": "Total cholesterol percent change from baseline to week 24", "setting": "Week 24, on-treatment analysis", "value": "−30.4 (0.9)"}, {"measurement": "Total cholesterol percent change from baseline to week 24, LS mean difference (SE) alirocumab vs ezetimibe", "setting": "Week 24, on-treatment analysis", "value": "−15.1 (1.5) %"}, {"measurement": "Triglycerides (fasted) percent change from baseline to week 24", "setting": "Week 24, on-treatment analysis", "value": "−13.5 (1.4)"}, {"measurement": "Triglycerides (fasted) percent change from baseline to week 24, LS mean difference (SE) alirocumab vs ezetimibe", "setting": "Week 24, on-treatment analysis", "value": "−0.2 (2.5) %"}, {"measurement": "Calculated LDL-C percent change from baseline, LS mean (SE)", "setting": "Week 36", "value": "−51.2 (1.4) %"}, {"measurement": "Calculated LDL-C - Percent change from baseline to Week 52, LS mean difference vs. ezetimibe", "setting": "Week 52, ITT", "value": "vs. ezetimibe of −31.2%"}, {"measurement": "Absolute reduction in LDL-C", "setting": "by week 24, dose-increased group", "value": 63.5, "unit": "mg/dL"}, {"measurement": "Absolute reduction in LDL-C", "setting": "by week 24, remainder of the alirocumab group", "value": 56.9, "unit": "mg/dL"}, {"measurement": "Patients who did not require uptitration to alirocumab 150 mg Q2W", "setting": "in vivo", "value": "approximately 80%"}, {"measurement": "Additional LDL-C reduction after dose increase at 12 weeks", "setting": "patients with dose increased to 150 mg SC Q2W", "value": 12.4, "unit": "%"}]}]}
